Measured values taken from the NIST ThermoML archive (doi:10.1021/je600580r).
± gives the expanded uncertainty stated by the source.

Experiments:
[1] = Molar enthalpy of transition or fusion; conditions: Crystal; DSC
[2] = molar enthalpy of vaporization or sublimation; conditions: Liquid, DSC
[3] = Crystal; DTA

CCNc1nc(NC(C)(C)C)nc(SC)n1
Molar enthalpy of transition or fusion [1]: 5.02 ± 0.956 kcal/mol
molar enthalpy ([2]; 467 K): 20.8 ± 2.39 kcal/mol
Normal melting temperature [3]: 99.2 ± 0.5 °C

CCNc1nc(NCC)nc(SC)n1 [2-methylthio-4,6-bis(ethylamino)-1,3,5-triazine]
Molar enthalpy of transition or fusion [1]: 5.74 ± 0.478 kcal/mol
molar enthalpy ([2]; 461 K): 21 ± 1.91 kcal/mol
Normal melting temperature [3]: 77.4 ± 0.5 °C

CCNc1nc(NC(C)C)nc(SC)n1 [2-methylthio-4-ethylamino-6-isopropylamino-1,3,5-triazine]
Molar enthalpy of transition or fusion [1]: 6.21 ± 0.956 kcal/mol
molar enthalpy ([2]; 466 K): 21.7 ± 1.91 kcal/mol
Normal melting temperature [3]: 83.6 ± 0.5 °C
